In patent US20230312587A1, “PTERIDINONE COMPOUNDS AND USES THEREOF” (Vertex Pharmaceutical Incorporated, priority 2018, published 2023):
Where two headings read alike, the source gives them in different places.

What was measured:
Colo-205 cells = assay: Calcium flux assay (FLIPR Calcium 5); assay type: cell-based; settings: FLIPR Calcium 5, measured over 36 minutes
Protocol: Compounds described herein induced ER stress by causing intracellular calcium flux. Calcium flux was measured in Colo-205 cells using the FLTPR® Calcium 5 Assay Kit according to manufacter's protocol (Molecular Devices, Cat. #R8186) on a FLIPR3 system (Molecular Devices). Calcium flux is measured over 36 minutes. The Colo-205 calcium flux assay data are summarized in Table 47: A<0.6 μM; 0.6 μM≤B<2.0 μM; 2.0 μM≤C<10.0 μM; D≥10.0 μM.

[1] = system: β-catenin-TCF-mediated reporter transcription activity in Colo 205 cells; assay: Colo 205 reporter assay (TCF/LEF luciferase); assay type: cell-based; settings: five hours after addition of compound
Method in brief: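 Luciferase signal from a TCF/LEF-driven reporter, stably integrated in Colo 205 colon cancer cells, was measured 5 h after compound addition.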

[2] = molecular target: HEK293 membranes over-expressing WFS-1 (Homo sapiens (Human), UniProt O76024); assay: Radioligand displacement assay (tritiated Compound 136 probe); assay type: binding; settings: displacement of tritiated Compound 136
Method in brief: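 WFS-1-overexpressing HEK293 membranes were preincubated 10 min with compound, then tritiated probe was added for 90 min at room temperature. Bound probe was collected by filtration on PEI-pretreated GF/B filters, washed and scintillation-counted. IC50 came from a 3-parameter fit of bound probe vs compound concentration.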

[3] = Homo sapiens, COLO 205, 5 h, Colo 205 TCF/LEF luciferase reporter, read-out: TCF reporter Colo205 IC50
[4] = Homo sapiens, COLO 205, 5 h, Colo 205 cells with stably transfected TCF/LEF luciferase reporter, read-out: TCF reporter Colo205
[5] = Colo 205 TCF/LEF luciferase reporter, read-out: TCF reporter Colo205 IC50

Sequence of HEK293 membranes over-expressing WFS-1 (O76024 whole entry): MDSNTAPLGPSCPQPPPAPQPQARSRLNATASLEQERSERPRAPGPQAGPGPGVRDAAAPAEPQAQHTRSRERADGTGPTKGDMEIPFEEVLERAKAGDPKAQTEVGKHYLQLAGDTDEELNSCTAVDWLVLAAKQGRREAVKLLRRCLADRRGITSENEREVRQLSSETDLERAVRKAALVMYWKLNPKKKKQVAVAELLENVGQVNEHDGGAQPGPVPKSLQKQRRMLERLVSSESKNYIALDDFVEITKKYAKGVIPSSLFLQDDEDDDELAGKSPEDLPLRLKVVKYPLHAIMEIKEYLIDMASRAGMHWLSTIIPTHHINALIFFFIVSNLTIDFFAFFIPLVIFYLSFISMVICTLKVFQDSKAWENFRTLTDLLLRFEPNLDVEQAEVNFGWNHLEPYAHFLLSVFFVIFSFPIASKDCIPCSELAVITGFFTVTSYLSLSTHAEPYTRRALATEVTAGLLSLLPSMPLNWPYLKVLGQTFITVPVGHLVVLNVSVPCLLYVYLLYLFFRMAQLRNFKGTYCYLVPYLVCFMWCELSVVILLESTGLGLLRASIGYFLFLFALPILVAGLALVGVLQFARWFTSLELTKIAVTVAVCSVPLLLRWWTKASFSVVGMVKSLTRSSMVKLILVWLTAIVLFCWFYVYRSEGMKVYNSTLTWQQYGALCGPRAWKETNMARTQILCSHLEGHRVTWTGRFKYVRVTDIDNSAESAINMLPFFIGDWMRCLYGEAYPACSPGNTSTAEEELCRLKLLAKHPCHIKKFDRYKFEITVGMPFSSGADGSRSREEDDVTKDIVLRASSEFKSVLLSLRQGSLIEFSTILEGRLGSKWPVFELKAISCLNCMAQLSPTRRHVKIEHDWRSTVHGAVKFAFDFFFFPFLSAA

Row | Molecule | EC50 (Colo-205 cells; Homo sapiens, COLO 205, 0.6 h) [nM] | IC50 [1, 3] [nM] | IC50 [2] [nM] | IC50 [1, 4] [nM] | EC50 (Colo-205 cells) [nM] | IC50 [1, 5] [nM]
1 | Cc1nc(NCc2cnn(Cc3ccc(C(F)(F)F)nc3)c2)nc2c1NC(=O)C1(CCC1)N2C [Compound 398, 4′,8′-dimethyl-2′-(((1-((6-(trifluoromethyl)pyridin-3-yl)methyl)-1H-pyrazol-4-yl)methyl)amino)-5′,8′-dihydro-6′H-spiro[cyclobutane-1,7′-pteridin]-6′-one] | 600 to 2000 | – | 60 to 600 | < 300 | – | –
2 | Cc1nc(NCc2cnn(Cc3cc(C(F)(F)F)nn3C)c2)nc2c1NC(=O)[C@H](C)N2C [Compound 160, (7S)-4,7,8-trimethyl-2-(((1-((1-methyl-3-(trifluoromethyl)-1H-pyrazol-5-yl)methyl)-1H-pyrazol-4-yl)methyl)amino)-7,8-dihydropteridin-6(5H)-one] | 600 to 2000 | < 300 | 60 to 600 | – | – | –
3 | CC[C@H]1C(=O)Nc2cnc(NCc3cnn(Cc4ccc(F)cc4)c3)nc2N1C [Compound 9, (7S)-7-ethyl-2-(((1-(4-fluorobenzyl)-1H-pyrazol-4-yl)methyl)amino)-8-methyl-7,8-dihydropteridin-6(5H)-one] | 600 to 2000 | < 300 | 60 to 600 | – | – | –
4 | Cc1nc(NCc2cnn(Cc3ccc(C(F)(F)F)nc3C(C)O)c2)nc2c1NC(=O)[C@H](C)N2C (stereo partly drawn) [Compound 419, (7S)-2-(((1-((2-((S)-1-hydroxyethyl)-6-(trifluoromethyl)pyridin-3-yl)methyl)-1H-pyrazol-4-yl)methyl)amino)-4,7,8-trimethyl-7,8-dihydropteridin-6(5H)-one] | 2000 to 10000 | < 300 | 60 to 600 | – | – | –
5 | Cc1ncc(Cn2cc(CNc3nc(C)c4c(n3)N(C)[C@@H](C)C(=O)N4)cn2)cn1 [Compound 163, (7S)-4,7,8-trimethyl-2-(((1-((2-methylpyrimidin-5-yl)methyl)-1H-pyrazol-4-yl)methyl)amino)-7,8-dihydropteridin-6(5H)-one] | 2000 to 10000 | 1000 to 5000 | ≥ 3000 | – | – | –
6 | Cc1nc(N[C@H]2C[C@@H](Oc3cc(F)c(F)c(F)c3)C2)nc2c1NC(=O)[C@H](C)N2C [Compound 247, (7S)-4,7,8-trimethyl-2-((cis-3-(3,4,5-trifluorophenoxy)cyclobutyl)amino)-7,8-dihydropteridin-6(5H)-one] | 2000 to 10000 | 1000 to 5000 | 60 to 600 | – | – | –
7 | Cc1nc(N[C@@H]2CC[C@@H](n3ccc(C(F)(F)F)n3)C2)nc2c1NC(=O)[C@H](C)N2C (single isomer, unassigned) [Compound 311] | < 600 | < 300 | 60 to 600 | – | – | –
8 | Cc1cnc(C(F)(F)F)nc1-n1cc(CNc2ncc3c(n2)N(C)[C@@H](C)C(=O)N3)cn1 [Compound 164, (7S)-7,8-dimethyl-2-(((1-(5-methyl-2-(trifluoromethyl)pyrimidin-4-yl)-1H-pyrazol-4-yl)methyl)amino)-7,8-dihydropteridin-6(5H)-one] | 2000 to 10000 | 1000 to 5000 | 60 to 600 | – | – | –
9 | Cc1nc(NCc2cnn(Cc3ccnc(C(F)(F)F)c3)c2)nc2c1NC(=O)[C@H](C)N2C [Compound 207, (7S)-4,7,8-trimethyl-2-(((1-((2-(trifluoromethyl)pyridin-4-yl)methyl)-1H-pyrazol-4-yl)methyl)amino)-7,8-dihydropteridin-6(5H)-one] | 600 to 2000 | < 300 | 60 to 600 | – | – | –
10 | Cc1nc(N[C@H]2C[C@H](Oc3cc(F)c(F)c(F)c3)C2)nc2c1NC(=O)[C@H](C)N2C [Compound 246, (7S)-4,7,8-trimethyl-2-((trans-3-(3,4,5-trifluorophenoxy)cyclobutyl)amino)-7,8-dihydropteridin-6(5H)-one] | ≥ 10000 | < 300 | 60 to 600 | – | – | –
11 | Cc1nc(C(F)(F)F)ccc1Cn1cc(CNc2nc(C)c3c(n2)N(C)[C@@H](C)C(=O)N3)cn1 [Compound 188, (S)-4,7,8-trimethyl-2-(((1-((2-methyl-6-(trifluoromethyl)pyridin-3-yl)methyl)-1H-pyrazol-4-yl)methyl)amino)-7,8-dihydropteridin-6(5H)-one] | 600 to 2000 | < 300 | 60 to 600 | – | – | –
12 | CC(=O)N(Cc1cnn(Cc2ccc(C(F)(F)F)nc2)c1)c1nc(C)c2c(n1)N(C)[C@@H](C)C(=O)N2 [Compound 405, (7S)-N-((1-((6-(trifluoromethyl)pyridin-3-yl)methyl)-1H-pyrazol-4-yl)methyl)-N-(4,7,8-trimethyl-6-oxo-5,6,7,8-tetrahydropteridin-2-yl)acetamide] | ≥ 10000 | – | ≥ 3000 | ≥ 5000 | – | –
13 | CCN1c2nc(NCc3cnn(Cc4ccc(C(F)(F)F)nc4)c3)nc(C)c2NC(=O)[C@@H]1C [Compound 395, (7S)-8-Ethyl-4,7-dimethyl-2-(((1-((6-(trifluoromethyl)pyridin-3-yl)methyl)-1H-pyrazol-4-yl)methyl)amino)-7,8-dihydropteridin-6(5H)-one] | 600 to 2000 | < 300 | 60 to 600 | – | – | –
14 | (7S)-2-(((1-((6-fluoro-2-isopropylpyridin-3-yl)methyl)-1H-pyrazol-4-yl)methyl)(methyl)amino)-7-isopropyl-4,8-dimethyl-7,8-dihydropteridin-6(5H)-one [Compound 430] | – | – | < 60 | – | 600 to 2000 | < 300
15 | Cc1nn(C)cc1Cn1cc(CNc2nc(C)c3c(n2)N(C)[C@@H](C)C(=O)N3)cn1 [Compound 139, (7S)-2-(((1-((1,3-dimethyl-1H-pyrazol-4-yl)methyl)-1H-pyrazol-4-yl)methyl)amino)-4,7,8-trimethyl-7,8-dihydropteridin-6(5H)-one] | 2000 to 10000 | 1000 to 5000 | 600 to 3000 | – | – | –
16 | Cc1ncc(Cn2cc(CNc3nc(C)c4c(n3)N(C)[C@@H](C(C)C)C(=O)N4)cn2)cc1F [Compound 425, (7S)-2-(((1-((5-fluoro-6-methylpyridin-3-yl)methyl)-1H-pyrazol-4-yl)methyl)amino)-7-isopropyl-4,8-dimethyl-7,8-dihydropteridin-6(5H)-one] | 600 to 2000 | < 300 | 60 to 600 | – | – | –

Further lines, with some results ahead:

Row | EC50 (Colo-205 cells; Homo sapiens, COLO 205, 0.6 h) [nM] | IC50 [1, 3] [nM] | IC50 [2] [nM] | IC50 [1, 4] [nM] | Molecule | EC50 (Colo-205 cells) [nM] | IC50 [1, 5] [nM]
17 | 600 to 2000 | < 300 | < 60 | – | Cc1nc(NCc2cn(Cc3ccc(C(F)(F)F)nc3)nc2Br)nc2c1NC(=O)[C@H](C)N2C [Compound 412, (S)-2-(((3-bromo-1-((6-(trifluoromethyl)pyridin-3-yl)methyl)-1H-pyrazol-4-yl)methyl)amino)-4,7,8-trimethyl-7,8-dihydropteridin-6(5H)-one] | – | –
18 | – | – | < 60 | – | Cc1nc(N[C@H]2CC[C@H](Oc3ccc(C(F)(F)F)nc3)C2)nc2c1NC(=O)[C@H](C)N2C (single isomer, unassigned) [Compound 377] | < 600 | < 300
19 | < 600 | < 300 | < 60 | – | COc1cc(F)ccc1Cn1cc(CNc2nc(C)c3c(n2)N(C)[C@@H](C)C(=O)N3)cn1 [Compound 83, (7S)-2-(((1-(4-fluoro-2-methoxybenzyl)-1H-pyrazol-4-yl)methyl)amino)-4,7,8-trimethyl-7,8-dihydropteridin-6(5H)-one] | – | –
20 | < 600 | < 300 | < 60 | – | Cc1nc(NCc2cnn(Cc3ccc(C(F)(F)F)nc3Cl)c2)nc2c1NC(=O)[C@H](C)N2C [Compound 418, (7S)-2-(((1-((2-chloro-6-(trifluoromethyl)pyridin-3-yl)methyl)-1H-pyrazol-4-yl)methyl)amino)-4,7,8-trimethyl-7,8-dihydropteridin-6(5H)-one] | – | –
21 | < 600 | < 300 | < 60 | – | COc1c(F)cc(Cn2cc(CNc3nc(C)c4c(n3)N(C)[C@@H](C)C(=O)N4)cn2)cc1F [Compound 46, (7S)-2-(((1-(3,5-difluoro-4-methoxybenzyl)-1H-pyrazol-4-yl)methyl)amino)-4,7,8-trimethyl-7,8-dihydropteridin-6(5H)-one] | – | –
22 | < 600 | < 300 | < 60 | – | Cc1nc(N[C@H]2C[C@H](Oc3ccc(C(F)(F)F)nc3)C2)nc2c1NC(=O)[C@H](C)N2C [Compound 324, (7S)-4,7,8-trimethyl-2-((trans-3-((6-(trifluoromethyl)pyridin-3-yl)oxy)cyclobutyl)amino)-7,8-dihydropteridin-6(5H)-one] | – | –
23 | 600 to 2000 | < 300 | < 60 | – | Cc1nc(NCc2cnn(Cc3ccc(C(F)(F)F)nc3)c2)nc2c1NC(=O)[C@H](C(C)C)N2C [Compound 383, (7S)-7-isopropyl-4,8-dimethyl-2-(((1-((6-(trifluoromethyl)pyridin-3-yl)methyl)-1H-pyrazol-4-yl)methyl)amino)-7,8-dihydropteridin-6(5H)-one] | – | –
24 | < 600 | < 300 | < 60 | – | Cc1nc(NCc2cnn(Cc3ccc(C(F)(F)F)nc3C(C)C)c2)nc2c1NC(=O)[C@H](C)N2C [Compound 388, (7S)-2-(((1-((2-isopropyl-6-(trifluoromethyl)pyridin-3-yl)methyl)-1H-pyrazol-4-yl)methyl)amino)-4,7,8-trimethyl-7,8-dihydropteridin-6(5H)-one] | – | –
